Measured values published in a polymer gas permeability compilation.

| N2 permeability [Barrer] | O2 permeability [Barrer] | H2 permeability [Barrer] | Compound |
| --- | --- | --- | --- |
| 0.06 | 0.37 |  | *=CC1CC(C=*)C(COS(=O)(=O)c2ccc(C)cc2)C1 (repeat unit) |
| 9 | 21 | 133 | *C(C(=O)OC(C)C)C(*)C(=O)OC(C)(C)C (repeat unit) |
| 3 | 8 | 41 | *C(C(=O)OC(C)C)C(*)C(=O)OC1CCCCC1 (repeat unit) |
| 5 | 17 | 72 | *C(C(=O)OC1CCCCC1)C(*)C(=O)OC(C)(C)C (repeat unit) |
| 0.732 | 4.42 | 40 | *c1c(C)cc(C)c(N2C(=O)c3ccc(Oc4ccc(Oc5ccc6c(c5)C(=O)N(*)C6=O)cc4)cc3C2=O)c1C (repeat unit) |
| 1.62 | 8.2 | 68.6 | *c1c(C)cc(C)c(N2C(=O)c3ccc(Sc4ccc5c(c4)C(=O)N(*)C5=O)cc3C2=O)c1C (repeat unit) |
| 0.0517 | 0.348 | 5.01 | *c1ccc(-c2ccc(N3C(=O)c4ccc(C(=O)Oc5ccc(C(c6ccc(OC(=O)c7ccc8c(c7)C(=O)N(*)C8=O)cc6)(C(F)(F)F)C(F)(F)F)cc5)cc4C3=O)cc2)cc1 (repeat unit) |
| 0.109 | 0.677 | 8.38 | *c1ccc(-c2ccc(N3C(=O)c4ccc([Si](C)(C)c5ccc6c(c5)C(=O)N(*)C6=O)cc4C3=O)cc2)cc1 (repeat unit) |
|  | 0.004 | 0.16 | *c1ccc(-c2nc3cc(-c4ccc5[nH]c(*)nc5c4)ccc3[nH]2)cc1 (repeat unit) |
| 0.164 | 0.917 | 11.8 | *c1ccc(Cc2ccc(N3C(=O)c4ccc(C(=O)Oc5ccc(C(c6ccc(OC(=O)c7ccc8c(c7)C(=O)N(*)C8=O)cc6)(C(F)(F)F)C(F)(F)F)cc5)cc4C3=O)cc2)cc1 (repeat unit) |
| 0.02 | 0.211 | 4.03 | *c1ccc(Cc2ccc(N3C(=O)c4ccc(C(=O)c5ccc6c(c5)C(=O)N(*)C6=O)cc4C3=O)cc2)cc1 (repeat unit) |
| 0.076 | 0.501 | 8.31 | *c1ccc(Cc2ccc(N3C(=O)c4ccc(Oc5ccc(C(c6ccc(Oc7ccc8c(c7)C(=O)N(*)C8=O)cc6)(C(F)(F)F)C(F)(F)F)cc5)cc4C3=O)cc2)cc1 (repeat unit) |
| 0.084 | 0.55 | 8.95 | *c1ccc(Oc2ccc(N3C(=O)c4ccc(Oc5ccc(C(c6ccc(Oc7ccc8c(c7)C(=O)N(*)C8=O)cc6)(C(F)(F)F)C(F)(F)F)cc5)cc4C3=O)cc2)cc1 (repeat unit) |
| 0.026 | 0.183 | 4.77 | *c1ccc(Oc2ccc(N3C(=O)c4ccc(Oc5ccc6c(c5)C(=O)N(*)C6=O)cc4C3=O)cc2)cc1 (repeat unit) |
| 0.027 | 0.2 | 5.61 | *c1ccc(Oc2ccc(N3C(=O)c4ccc(S(=O)(=O)c5ccc6c(c5)C(=O)N(*)C6=O)cc4C3=O)cc2)cc1 (repeat unit) |
| 0.023 | 0.24 | 6.56 | *c1ccc2c(c1)C(=O)n1c-2nc2ccc(Oc3ccc4c(c3)nc3n4C(=O)c4ccc(*)cc4-3)cc21 (repeat unit) |
| 0.155 | 0.977 | 13.3 | *c1ccc2c(c1)nc1n2C(=O)c2ccc(C(=O)Oc3ccc(C(c4ccc(OC(=O)c5ccc6c(c5)C(=O)n5c-6nc6ccc(*)cc65)cc4)(C(F)(F)F)C(F)(F)F)cc3)cc2-1 (repeat unit) |
|  | 0.07 | 1.89 | *c1nc2cc(-c3ccc4[nH]c(-c5cc(Br)c(*)cc5Br)nc4c3)ccc2[nH]1 (repeat unit) |

| Compound | N2 permeability [Barrer] | O2 permeability [Barrer] | H2 permeability [Barrer] |
| --- | --- | --- | --- |
| *CC(*)c1ccc(O)cc1 (repeat unit) | 0.015 | 0.12 |  |
| *CC(C#N)(C#N)CC(*)OC(C)=O (repeat unit) | 0.0138 | 0.16 |  |
| *O[Si](*)(C)CCCCCC (repeat unit) | 103 | 236 |  |
| *[Si](C)(C)CCCCCCCC[Si](*)(C)C (repeat unit) | 76.2 | 188 |  |
| *[Si](C)(C)c1ccc([Si](*)(C)C)cc1 (repeat unit) | 3.39 | 14.1 |  |
| *[Si](C)(C)c1cccc([Si](*)(C)C)c1 (repeat unit) | 31.9 | 75.6 |  |
